Test results reported in patent US10344025B2, “GLS1 inhibitors for treating disease” (Board of Regents, The University of Texas System, priority 2014, dated 2019).
Read-outs that look alike come from different tables or passages of the source.

Key:
[1] = target: purified recombinant human GAC (GLS1) (Homo sapiens (Human), UniProt O94925); test: GLS1 Enzymatic Activity Assay (dual-coupled enzymatic assay, resorufin/Amplex UltraRed readout); assay type: biochemical;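 also: glutamate from GAC coupled via glutamate oxidase and peroxidase to resorufin, read as fluorescence (ex 530, em 590 nm) kinetically or at 20 min, four-parameter logistic IC50 fit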
Chain of purified recombinant human GAC (GLS1) (O94925 other isoform, or with tags, fused parts or gaps): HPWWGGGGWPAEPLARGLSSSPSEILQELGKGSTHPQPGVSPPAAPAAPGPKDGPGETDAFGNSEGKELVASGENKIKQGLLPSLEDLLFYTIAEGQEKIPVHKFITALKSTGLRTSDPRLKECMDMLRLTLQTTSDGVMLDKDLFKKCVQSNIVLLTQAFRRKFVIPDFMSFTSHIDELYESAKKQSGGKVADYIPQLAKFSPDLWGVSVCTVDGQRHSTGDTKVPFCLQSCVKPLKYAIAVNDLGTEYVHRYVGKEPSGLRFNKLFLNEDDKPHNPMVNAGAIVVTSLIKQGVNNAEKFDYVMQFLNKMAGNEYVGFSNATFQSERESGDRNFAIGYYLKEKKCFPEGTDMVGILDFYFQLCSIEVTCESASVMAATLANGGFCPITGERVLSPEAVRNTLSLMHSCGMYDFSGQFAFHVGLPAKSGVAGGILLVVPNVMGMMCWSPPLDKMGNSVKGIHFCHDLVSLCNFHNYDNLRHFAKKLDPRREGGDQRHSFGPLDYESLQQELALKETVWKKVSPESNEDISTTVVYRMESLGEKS

A549 cells = test: Proliferation Assay (A549 viability, Cell Titer Fluor, 72 hours); assay type: cell-based
Procedure, shortened: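 A549 cells seeded at 1000 cells/well, rested 24 h, then exposed to compound in 0.5% DMSO for 72 h at 37 °C. Viability read by Cell Titer Fluor fluorescence; IC50 from four-parameter logistic fit.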

For O=C(NCc1cc(C(F)(F)F)ccn1)c1cn(CCCCn2cc(C(=O)NCC3CC3)nn2)nn1 [Example 89], the IC50 [1] was 500 to 5000 nM and the EC50 (A549 cells; Homo sapiens, A549, 72 h) was 500 to 5000 nM.
Compound O=C(Cc1cc(OC(F)(F)F)ccc1F)Nc1ccc(CCCCn2cc(C(=O)NC3COC3)nn2)nn1 [Example 581, 1-(4-(6-(2-(2-fluoro-5-(trifluoromethoxy)phenyl)acetamido)pyridazin-3-yl)butyl)-N-(oxetan-3-yl)-1H-1,2,3-triazole-4-carboxamide] has an IC50 [1] of under 100 nM and an EC50 (A549 cells; Homo sapiens, A549, 72 h) of 100 to 500 nM.
Compound CNC(=O)c1cn(C[C@H](F)CCc2nnc(C(=O)NCc3cc(C(F)(F)F)ccn3)s2)nn1 (single isomer, unassigned) [Example 221] has an IC50 [1] of 100 to 500 nM and an EC50 (A549 cells; Homo sapiens, A549, 72 h) of 100 to 500 nM.
For O=C(NCc1ccc(C(F)(F)F)cn1)c1cn(CC(F)CCc2nnc(C(=O)NCc3cccc(OC(F)(F)F)c3)s2)nn1 (stereo not drawn) [Example 445, 5-{3-fluoro-4-[4-({[5-(trifluoromethyl)pyridin-2-yl]methyl}carbamoyl)-1H-1,2,3-triazol-1-yl]butyl}-N-{[3-(trifluoromethoxy)phenyl]methyl}-1,3,4-thiadiazole-2-carboxamide], the IC50 [1] was under 100 nM and the EC50 (A549 cells; Homo sapiens, A549, 72 h) was under 100 nM.
Work on Cc1ccc(CNC(=O)c2cn(CCC(F)Cn3cc(C(=O)NCc4cccc(OC(F)(F)F)c4)nn3)nn2)cn1 (stereo not drawn) [Example 434, 1-[2-fluoro-4-(4-{[(6-methylpyridin-3-yl)methyl]carbamoyl}-1H-1,2,3-triazol-1-yl)butyl]-N-{[3-(trifluoromethoxy)phenyl]methyl}-1H-1,2,3-triazole-4-carboxamide] yielded an IC50 [1] of under 100 nM and an EC50 (A549 cells; Homo sapiens, A549, 72 h) of under 100 nM.
In the case of O=C(NCc1cccc(OC(F)(F)F)c1)c1cn(CCCCn2cc(C(=O)NCC3CCCOC3)nn2)nn1 (stereo not drawn) [Example 117, N-(oxan-3-ylmethyl)-1-{4-[4-({[3-(trifluoromethoxy)phenyl]methyl}carbamoyl)-1H-1,2,3-triazol-1-yl]butyl}-1H-1,2,3-triazole-4-carboxamide], the IC50 [1] is reported as 100 to 500 nM and the EC50 (A549 cells; Homo sapiens, A549, 72 h) is reported as 100 to 500 nM.
For O=C(NCc1cccc(C2CC2)c1)c1cn(CCCCn2cc(C(=O)NCc3cc(C(F)(F)F)ccn3)nn2)nn1 [Example 105, 1-[4-(4-{[(3-cyclopropylphenyl)methyl]carbamoyl}-1H-1,2,3-triazol-1-yl)butyl]-N-{[4-(trifluoromethyl)pyridin-2-yl]methyl}-1H-1,2,3-triazole-4-carboxamide], the IC50 [1] was under 100 nM and the EC50 (A549 cells; Homo sapiens, A549, 72 h) was under 100 nM.
NC(=O)c1nnc(CCC(F)Cn2cc(C(=O)NCc3cccc(OC(F)(F)F)c3)nn2)s1 (stereo not drawn) [Example 521, 5-{3-fluoro-4-[4-({[3-(trifluoromethoxy)phenyl]methyl}carbamoyl)-1H-1,2,3-triazol-1-yl]butyl}-1,3,4-thiadiazole-2-carboxamide] was tested, and the IC50 [1] was 100 to 500 nM and the EC50 (A549 cells; Homo sapiens, A549, 72 h) was 100 to 500 nM.
O=C(Cc1cccnc1)Nc1cn(CCCCn2cc(C(=O)NCc3cccc(OC(F)(F)F)c3)nn2)nn1 [Example 294, 1-(4-{4-[2-(pyridin-3-yl)acetamido]-1H-1,2,3-triazol-1-yl}butyl)-N-{[3-(trifluoromethoxy)phenyl]methyl}-1H-1,2,3-triazole-4-carboxamide] was tested, and the IC50 [1] was under 100 nM and the EC50 (A549 cells; Homo sapiens, A549, 72 h) was 100 to 500 nM.
In the case of CNC(=O)c1cn(CC(F)CCc2nnc(C(=O)NCc3cccc(OC(F)(F)F)c3)s2)nn1 (stereo not drawn) [Example 561, 5-{3-fluoro-4-[4-(methylcarbamoyl)-1H-1,2,3-triazol-1-yl]butyl}-N-{[3-(trifluoromethoxy)phenyl]methyl}-1,3,4-thiadiazole-2-carboxamide], the IC50 [1] is reported as under 100 nM and the EC50 (A549 cells; Homo sapiens, A549, 72 h) is reported as 100 to 500 nM.
In the case of Cc1ccc(CNC(=O)c2cn(CC(F)CCc3nnc(C(=O)NCc4cccc(OC(F)(F)F)c4)s3)nn2)cn1 (stereo not drawn) [Example 420, 5-[3-fluoro-4-(4-{[(6-methylpyridin-3-yl)methyl]carbamoyl}-1H-1,2,3-triazol-1-yl)butyl]-N-{[3-(trifluoromethoxy)phenyl]methyl}-1,3,4-thiadiazole-2-carboxamide], the IC50 [1] is reported as under 100 nM and the EC50 (A549 cells; Homo sapiens, A549, 72 h) is reported as 100 to 500 nM.
O=C(CN1CC(F)C1)Nc1cn(CC(F)CCn2cc(C(=O)NCc3cccc(OC(F)(F)F)c3)nn2)nn1 (stereo not drawn) [Example 371, 1-(3-fluoro-4-{4-[2-(3-fluoroazetidin-1-yl)acetamido]-1H-1,2,3-triazol-1-yl}butyl)-N-{[3-(trifluoromethoxy)phenyl]methyl}-1H-1,2,3-triazole-4-carboxamide] showed an IC50 [1] of under 100 nM and an EC50 (A549 cells; Homo sapiens, A549, 72 h) of 100 to 500 nM.
Work on Cc1ccc(CNC(=O)c2cn(CCC(F)Cn3cc(NC(=O)CN4CC(F)(F)C4)nn3)nn2)cn1 (stereo not drawn) [Example 393, 1-(4-{4-[2-(3,3-difluoroazetidin-1-yl)acetamido]-1H-1,2,3-triazol-1-yl}-3-fluorobutyl)-N-[(6-methylpyridin-3-yl)methyl]-1H-1,2,3-triazole-4-carboxamide] yielded an IC50 [1] of 500 to 5000 nM and an EC50 (A549 cells; Homo sapiens, A549, 72 h) of 500 to 5000 nM.
In the case of CNC(=O)c1cn(CC(F)CCc2ccc(NC(=O)CN3CCN(c4cccc(OC(F)(F)F)c4)CC3=O)nn2)nn1 (stereo not drawn) [Example 241, 1-(2-fluoro-4-(6-(2-(2-oxo-4-(3-(trifluoromethoxy)phenyl)piperazin-1-yl)acetamido)pyridazin-3-yl)butyl)-N-methyl-1H-1,2,3-triazole-4-carboxamide], the IC50 [1] is reported as under 100 nM and the EC50 (A549 cells; Homo sapiens, A549, 72 h) is reported as under 100 nM.
In the case of O=C(Cc1cccc(OC(F)(F)F)c1)Nc1nnc(CCC(F)Cn2cc(C(=O)NCc3ccc(C(F)(F)F)cn3)nn2)s1 (stereo not drawn) [Example 493, 1-[2-fluoro-4-(5-{2-[3-(trifluoromethoxy)phenyl]acetamido}-1,3,4-thiadiazol-2-yl)butyl]-N-{[5-(trifluoromethyl)pyridin-2-yl]methyl}-1H-1,2,3-triazole-4-carboxamide], the IC50 [1] is reported as under 100 nM and the EC50 (A549 cells; Homo sapiens, A549, 72 h) is reported as under 100 nM.
Work on CC(C)CNC(=O)c1cn(CCCCc2ccc(NC(=O)Cc3ccccc3)nn2)nn1 [Example 24, N-(2-methylpropyl)-1-{4-[6-(2-phenylacetamido)pyridazin-3-yl]butyl}-1H-1,2,3-triazole-4-carboxamide] yielded an IC50 [1] of under 100 nM and an EC50 (A549 cells; Homo sapiens, A549, 72 h) of under 100 nM.
In the case of O=C(Cc1ccccc1)Nc1nnc(CCCCn2cc(C(=O)NCCc3ccccc3)nn2)s1 [Example 13, 1-{4-[5-(2-phenylacetamido)-1,3,4-thiadiazol-2-yl]butyl}-N-(2-phenylethyl)-1H-1,2,3-triazole-4-carboxamide], the IC50 [1] is reported as under 100 nM and the EC50 (A549 cells; Homo sapiens, A549, 72 h) is reported as 500 to 5000 nM.
O=C(NCc1ccc(C(F)(F)F)nc1)c1cn(CCC(F)Cn2cc(C(=O)NCc3cccc(OC(F)(F)F)c3)nn2)nn1 (stereo not drawn) [Example 437, 1-{3-fluoro-4-[4-({[3-(trifluoromethoxy)phenyl]methyl}carbamoyl)-1H-1,2,3-triazol-1-yl]butyl}-N-{[6-(trifluoromethyl)pyridin-3-yl]methyl}-1H-1,2,3-triazole-4-carboxamide] was tested, and the IC50 [1] was under 100 nM and the EC50 (A549 cells; Homo sapiens, A549, 72 h) was under 100 nM.
For CC(=O)Nc1ccc(CCC(F)Cn2cc(C(=O)NCc3cc(C(F)(F)F)ccn3)nn2)nn1 (stereo not drawn) [Example 236, 1-(4-(6-acetamidopyridazin-3-yl)-2-fluorobutyl)-N-((4-(trifluoromethyl)pyridin-2-yl)methyl)-1H-1,2,3-triazole-4-carboxamide], the IC50 [1] was under 100 nM and the EC50 (A549 cells; Homo sapiens, A549, 72 h) was under 100 nM.
Compound O=C(NCc1cccc(C2CC2)c1)c1cn(CCC(F)Cn2cc(C(=O)NCc3cc(C4CC4)ccn3)nn2)nn1 (stereo not drawn) [Example 129, N-[(3-cyclopropylphenyl)methyl]-1-[4-(4-{[(4-cyclopropylpyridin-2-yl)methyl]carbamoyl}-1H-1,2,3-triazol-1-yl)-3-fluorobutyl]-1H-1,2,3-triazole-4-carboxamide] has an IC50 [1] of under 100 nM and an EC50 (A549 cells; Homo sapiens, A549, 72 h) of under 100 nM.
For O=C(Cc1cc(OC(F)(F)F)ccc1F)Nc1ccc(CCCCn2cc(C(=O)NCc3ccncc3)nn2)nn1 [Example 587, 1-(4-(6-(2-(2-fluoro-5-(trifluoromethoxy)phenyl)acetamido)pyridazin-3-yl)butyl)-N-(pyridin-4-ylmethyl)-1H-1,2,3-triazole-4-carboxamide], the IC50 [1] was under 100 nM and the EC50 (A549 cells; Homo sapiens, A549, 72 h) was under 100 nM.
CNC(=O)c1cn(CCC(F)Cn2cc(C(=O)NCc3cncc(C4CC4)c3)nn2)nn1 (stereo not drawn) [Example 164, 1-[4-(4-{[(5-cyclopropylpyridin-3-yl)methyl]carbamoyl}-1H-1,2,3-triazol-1-yl)-3-fluorobutyl]-N-methyl-1H-1,2,3-triazole-4-carboxamide] showed an IC50 [1] of under 100 nM and an EC50 (A549 cells; Homo sapiens, A549, 72 h) of 100 to 500 nM.
Compound O=C(NCc1ccc(C(F)(F)F)cn1)c1cn(CC(F)CCc2nnc(C(=O)NCc3cccc(C(F)(F)F)n3)s2)nn1 (stereo not drawn) [Example 492, 5-{3-fluoro-4-[4-({[5-(trifluoromethyl)pyridin-2-yl]methyl}carbamoyl)-1H-1,2,3-triazol-1-yl]butyl}-N-{[6-(trifluoromethyl)pyridin-2-yl]methyl}-1,3,4-thiadiazole-2-carboxamide] has an IC50 [1] of under 100 nM and an EC50 (A549 cells; Homo sapiens, A549, 72 h) of 100 to 500 nM.
With O=C(NCC1CCOCC1)c1cn(CCC(F)Cn2cc(C(=O)NCc3cc(C(F)(F)F)ccn3)nn2)nn1 (stereo not drawn) [Example 457, 1-(2-fluoro-4-{4-[(oxan-4-ylmethyl)carbamoyl]-1H-1,2,3-triazol-1-yl}butyl)-N-{[4-(trifluoromethyl)pyridin-2-yl]methyl}-1H-1,2,3-triazole-4-carboxamide] the IC50 [1] was 500 to 5000 nM and the EC50 (A549 cells; Homo sapiens, A549, 72 h) was 500 to 5000 nM.
Work on COc1cccc(CNC(=O)c2cn(CC(F)CCc3nnc(NC(=O)Cc4cc(OC(F)(F)F)ccc4F)s3)nn2)n1 (stereo not drawn) [Example 206, 1-(2-fluoro-4-(5-(2-(2-fluoro-5-(trifluoromethoxy)phenyl)acetamido)-1,3,4-thiadiazol-2-yl)butyl)-N-((6-methoxypyridin-2-yl)methyl)-1H-1,2,3-triazole-4-carboxamide] yielded an IC50 [1] of under 100 nM and an EC50 (A549 cells; Homo sapiens, A549, 72 h) of under 100 nM.
CNC(=O)c1cn(C[C@@H](F)CCc2nnc(NC(=O)Cc3cccc(OC(F)(F)F)c3)s2)nn1 [Example 239, (S)-1-(2-fluoro-4-(5-(2-(3-(trifluoromethoxy)phenyl)acetamido)-1,3,4-thiadiazol-2-yl)butyl)-N-methyl-1H-1,2,3-triazole-4-carboxamide] was tested, and the IC50 [1] was under 100 nM and the EC50 (A549 cells) was 100 to 500 nM.
With O=C(NCc1ccccc1)c1cn(CCCCc2nnc(C(=O)NCCO)s2)nn1 [Example 41, 5-{4-[4-(benzylcarbamoyl)-1H-1,2,3-triazol-1-yl]butyl}-N-(2-hydroxyethyl)-1,3,4-thiadiazole-2-carboxamide] the IC50 [1] was 500 to 5000 nM and the EC50 (A549 cells; Homo sapiens, A549, 72 h) was 500 to 5000 nM.
